According to the NIST ThermoML archive (doi:10.1016/j.fluid.2008.09.004):

What was measured:
[1] = molar heat capacity at constant pressure; xn = mol fraction of the nth substance listed; conditions: 101 kPa, Liquid, Small sample (50 mg) DSC
[2] = excess molar enthalpy (molar enthalpy of mixing); xn = mol fraction of the nth substance listed; conditions: 303.15 K, 101 kPa, Liquid, Calvet calorimetry
[3] = xn = mol fraction of the nth substance listed; conditions: 101 kPa, Liquid, Vibrating tube method

CCOS(=O)(=O)[O-].CCn1cc[n+](C)c1 [1-ethyl-3-methylimidazolium ethyl sulfate] + CCO
Conditions	mass density, [3] [kg/m3]	molar heat capacity at constant pressure, [1] [J/K/mol]
293.15 K, x1 = 0.0157	813.7	114.9
293.15 K, x1 = 0.05	860	–
293.15 K, x1 = 0.0523	862.6	124.6
293.15 K, x1 = 0.0978	913.4	137.1
293.15 K, x1 = 0.0991	914.6	–
293.15 K, x1 = 0.1944	996	163.7
293.15 K, x1 = 0.3073	1063.7	194.6
293.15 K, x1 = 0.4109	1109.6	223.4
293.15 K, x1 = 0.5084	1143.2	250.8
293.15 K, x1 = 0.5927	1167	274.9
293.15 K, x1 = 0.6995	1191.8	305.4
293.15 K, x1 = 0.7883	1208.9	331.1
293.15 K, x1 = 0.8797	1223.9	357.4
293.15 K, x1 = 0.9388	1232.5	374.4
298.15 K, x1 = 0.0157	809.5	116.8
298.15 K, x1 = 0.05	855.9	–
298.15 K, x1 = 0.0523	858.5	126.2
298.15 K, x1 = 0.0978	909.4	138.5
298.15 K, x1 = 0.0991	910.6	–
298.15 K, x1 = 0.1944	992.1	165
298.15 K, x1 = 0.3073	1060	195.9
298.15 K, x1 = 0.4109	1105.9	224.8
298.15 K, x1 = 0.5084	1139.6	252.3
298.15 K, x1 = 0.5927	1163.4	276.5
298.15 K, x1 = 0.6995	1188.3	307.2
298.15 K, x1 = 0.7883	1205.4	333
298.15 K, x1 = 0.8797	1220.5	359.4
298.15 K, x1 = 0.9388	1229.1	376.5
303.15 K, x1 = 0.0157	805.3	118.6
303.15 K, x1 = 0.05	851.8	–
303.15 K, x1 = 0.0523	854.4	127.9
303.15 K, x1 = 0.0978	905.3	139.9
303.15 K, x1 = 0.0991	906.6	–
303.15 K, x1 = 0.1944	988.3	166.3
303.15 K, x1 = 0.3073	1056.3	197.2
303.15 K, x1 = 0.4109	1102.3	226.3
303.15 K, x1 = 0.5084	1136	254
303.15 K, x1 = 0.5927	1159.9	278.3
303.15 K, x1 = 0.6995	1184.8	309
303.15 K, x1 = 0.7883	1202	335
303.15 K, x1 = 0.8797	1217.1	361.6
303.15 K, x1 = 0.9388	1225.7	378.8
308.15 K, x1 = 0.0157	801	120.7
308.15 K, x1 = 0.05	847.7	–
308.15 K, x1 = 0.0523	850.3	129.7
308.15 K, x1 = 0.0978	901.3	141.6
308.15 K, x1 = 0.0991	902.6	–
308.15 K, x1 = 0.1944	984.4	167.7
308.15 K, x1 = 0.3073	1052.6	198.8
308.15 K, x1 = 0.4109	1098.7	227.9
308.15 K, x1 = 0.5084	1132.5	255.8
308.15 K, x1 = 0.5927	1156.4	280.3
308.15 K, x1 = 0.6995	1181.4	311.1
308.15 K, x1 = 0.7883	1198.5	337.2
308.15 K, x1 = 0.8797	1213.7	364
308.15 K, x1 = 0.9388	1222.3	381.3
313.15 K, x1 = 0.0157	796.7	122.8
313.15 K, x1 = 0.05	843.5	–
313.15 K, x1 = 0.0523	846.1	131.6
313.15 K, x1 = 0.0978	897.3	143.2
313.15 K, x1 = 0.0991	898.5	–
313.15 K, x1 = 0.1944	980.6	169.2
313.15 K, x1 = 0.3073	1048.8	200.4
313.15 K, x1 = 0.4109	1095	229.6
313.15 K, x1 = 0.5084	1128.9	257.6
313.15 K, x1 = 0.5927	1152.9	282.3
313.15 K, x1 = 0.6995	1177.9	313.3
313.15 K, x1 = 0.7883	1195.1	339.5
313.15 K, x1 = 0.8797	1210.2	366.5
313.15 K, x1 = 0.9388	1218.9	383.9
318.15 K, x1 = 0.0157	792.3	125
318.15 K, x1 = 0.05	839.2	–
318.15 K, x1 = 0.0523	841.9	133.6
318.15 K, x1 = 0.0978	893.2	145
318.15 K, x1 = 0.0991	894.4	–
318.15 K, x1 = 0.1944	976.6	170.9
318.15 K, x1 = 0.3073	1045.1	202.2
318.15 K, x1 = 0.4109	1091.4	231.5
318.15 K, x1 = 0.5084	1125.3	259.7
318.15 K, x1 = 0.5927	1149.3	284.5
318.15 K, x1 = 0.6995	1174.4	315.6
318.15 K, x1 = 0.7883	1191.7	342
318.15 K, x1 = 0.8797	1206.9	369.1
318.15 K, x1 = 0.9388	1215.5	386.7

[2]
Conditions	excess molar enthalpy [kcal/mol]
x1 = 0.0486	0.125
x1 = 0.1198	0.26
x1 = 0.1961	0.302
x1 = 0.2952	0.315
x1 = 0.3917	0.297
x1 = 0.4937	0.276
x1 = 0.6087	0.22
x1 = 0.7017	0.171
x1 = 0.7963	0.118
x1 = 0.8774	0.0731
